Assay results published in PubChem BioAssay (NCI).
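Each compound was tested at five concentrations against cells in 96-well plates for 48 hours. GI50 = concentration required for 50% inhibition of growth. TGI: total growth inhibition.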

How the values were obtained:
Assay in all cases: NCI-60 cell line screen, 48 h; in the data active means GI50 below about 0.43 µM; inactive means the rest
786-0 renal = system: 786-0 renal
A549 NSCLC = system: A549 NSCLC
BT-549 breast = system: BT-549 breast
CAKI-1 renal = system: CAKI-1 renal
CCRF-CEM leukemia = system: CCRF-CEM leukemia
COLO 205 colon = system: COLO 205 colon
DU-145 prostate = system: DU-145 prostate
EKVX NSCLC = system: EKVX NSCLC
HCC-2998 colon = system: HCC-2998 colon
HCT-116 colon = system: HCT-116 colon
HCT-15 colon = system: HCT-15 colon
HL-60(TB) leukemia = system: HL-60(TB) leukemia
HOP-62 NSCLC = system: HOP-62 NSCLC
HOP-92 NSCLC = system: HOP-92 NSCLC
HS 578T breast = system: HS 578T breast
HT29 colon = system: HT29 colon
IGROV1 ovarian = system: IGROV1 ovarian
K-562 leukemia = system: K-562 leukemia
KM12 colon = system: KM12 colon
MALME-3M melanoma = system: MALME-3M melanoma
MCF7 breast = system: MCF7 breast
MDA-MB-231 breast = system: MDA-MB-231 breast
MDA-MB-435 = system: MDA-MB-435
MOLT-4 leukemia = system: MOLT-4 leukemia
NCI-H23 lung = system: NCI-H23 lung
NCI-H522 lung = system: NCI-H522 lung
OVCAR-4 ovarian = system: OVCAR-4 ovarian
OVCAR-8 ovarian = system: OVCAR-8 ovarian
PC-3 prostate = system: PC-3 prostate
RPMI-8226 leukemia = system: RPMI-8226 leukemia
RXF 393 renal = system: RXF 393 renal
SF-268 CNS = system: SF-268 CNS
SF-295 CNS = system: SF-295 CNS
SK-MEL-28 melanoma = system: SK-MEL-28 melanoma
SK-MEL-5 melanoma = system: SK-MEL-5 melanoma
SK-OV-3 ovarian = system: SK-OV-3 ovarian
SN12C renal = system: SN12C renal
SNB-19 CNS = system: SNB-19 CNS
SNB-75 CNS = system: SNB-75 CNS
SR leukemia = system: SR leukemia
SW-620 colon = system: SW-620 colon
T-47D breast = system: T-47D breast
U251 CNS = system: U251 CNS
UACC-257 melanoma = system: UACC-257 melanoma
A498 renal = system: A498 renal
ACHN renal = system: ACHN renal
LOX IMVI melanoma = system: LOX IMVI melanoma
M14 melanoma = system: M14 melanoma
NCI-H226 lung = system: NCI-H226 lung
NCI-H460 lung = system: NCI-H460 lung
NCI/ADR-RES ovarian = system: NCI/ADR-RES ovarian
OVCAR-5 ovarian = system: OVCAR-5 ovarian
SF-539 CNS = system: SF-539 CNS
SK-MEL-2 melanoma = system: SK-MEL-2 melanoma
TK-10 renal = system: TK-10 renal
UACC-62 melanoma = system: UACC-62 melanoma
UO-31 renal = system: UO-31 renal

Oc1ccc(CSc2nnc(-c3ccc(Cl)cc3)o2)c2cccnc12
5.16 µM: TGI (SK-MEL-5 melanoma)
> 100 µM: TGI (786-0 renal) | TGI (A549 NSCLC) | TGI (BT-549 breast) | TGI (CAKI-1 renal) | TGI (CCRF-CEM leukemia) | TGI (COLO 205 colon) | TGI (DU-145 prostate) | TGI (EKVX NSCLC) | TGI (HCC-2998 colon) | TGI (HCT-116 colon) | TGI (HCT-15 colon) | TGI (HOP-62 NSCLC) | TGI (HT29 colon) | TGI (IGROV1 ovarian) | TGI (K-562 leukemia) | TGI (KM12 colon) | TGI (MALME-3M melanoma) | TGI (MCF7 breast) | TGI (MDA-MB-231 breast) | TGI (MDA-MB-435) | TGI (MOLT-4 leukemia) | TGI (NCI-H23 lung) | TGI (NCI-H522 lung) | TGI (OVCAR-4 ovarian) | TGI (OVCAR-8 ovarian) | TGI (PC-3 prostate) | TGI (RPMI-8226 leukemia) | TGI (RXF 393 renal) | TGI (SF-268 CNS) | TGI (SF-295 CNS) | TGI (SK-MEL-28 melanoma) | TGI (SK-OV-3 ovarian) | TGI (SN12C renal) | TGI (SNB-19 CNS) | TGI (SR leukemia) | TGI (SW-620 colon) | TGI (T-47D breast) | TGI (U251 CNS) | TGI (UACC-257 melanoma)
inactive: GI50 (786-0 renal) 3.22 µM | GI50 (A549 NSCLC) 2.78 µM | GI50 (BT-549 breast) 2.47 µM | GI50 (CAKI-1 renal) 2.91 µM | GI50 (CCRF-CEM leukemia) 1 µM | GI50 (COLO 205 colon) > 100 µM | GI50 (DU-145 prostate) 3.67 µM | GI50 (EKVX NSCLC) 2.76 µM | GI50 (HCC-2998 colon) 2.29 µM | GI50 (HCT-116 colon) 1.76 µM | GI50 (HCT-15 colon) 0.698 µM | GI50 (HL-60(TB) leukemia) 1.91 µM | GI50 (HOP-62 NSCLC) 2.92 µM | GI50 (HOP-92 NSCLC) 1.14 µM | GI50 (HS 578T breast) 1.62 µM | GI50 (HT29 colon) > 100 µM | GI50 (IGROV1 ovarian) 2.8 µM | GI50 (K-562 leukemia) 2.17 µM | GI50 (KM12 colon) 1.96 µM | GI50 (MALME-3M melanoma) 2.87 µM | GI50 (MCF7 breast) 2.66 µM | GI50 (MDA-MB-231 breast) 3.18 µM | GI50 (MDA-MB-435) 2.96 µM | GI50 (MOLT-4 leukemia) 2.37 µM | GI50 (NCI-H23 lung) 2.42 µM | GI50 (NCI-H522 lung) 2.92 µM | GI50 (OVCAR-4 ovarian) 3.07 µM | GI50 (OVCAR-8 ovarian) 2.32 µM | GI50 (PC-3 prostate) 1.49 µM | GI50 (RPMI-8226 leukemia) 1.22 µM | GI50 (RXF 393 renal) 2.37 µM | GI50 (SF-268 CNS) 1.56 µM | GI50 (SF-295 CNS) 2.34 µM | GI50 (SK-MEL-28 melanoma) 2.38 µM | GI50 (SK-MEL-5 melanoma) 1.89 µM | GI50 (SK-OV-3 ovarian) 3.15 µM | GI50 (SN12C renal) 2.54 µM | GI50 (SNB-19 CNS) 1.52 µM | GI50 (SNB-75 CNS) 1.52 µM | GI50 (SR leukemia) 0.777 µM | GI50 (SW-620 colon) 2.91 µM | GI50 (T-47D breast) 2.54 µM | GI50 (U251 CNS) 1.11 µM | GI50 (UACC-257 melanoma) 3.19 µM
9.57 µM: TGI (HL-60(TB) leukemia)
64.7 µM: TGI (HS 578T breast)
7.81 µM: TGI (SNB-75 CNS)
6.72 µM: TGI (HOP-92 NSCLC)

Nc1nc(N)c2c(n1)NC(c1ccc(Cl)cc1)CC(c1ccc(Nc3nc(NCCO)nc(Nc4ccc(Cl)cc4)n3)cc1)=N2 (stereo not given)
15.3 µM: TGI (UO-31 renal)
3.58 µM: TGI (IGROV1 ovarian)
2.8 µM: TGI (HCT-15 colon) | TGI (SK-MEL-5 melanoma)
26.1 µM: TGI (SF-268 CNS)
6.88 µM: TGI (EKVX NSCLC)
inactive: GI50 (786-0 renal) 1.55 µM | GI50 (A498 renal) 5.9 µM | GI50 (A549 NSCLC) 4.12 µM | GI50 (ACHN renal) 4.69 µM | GI50 (BT-549 breast) 2.25 µM | GI50 (CAKI-1 renal) 5.36 µM | GI50 (COLO 205 colon) 1.51 µM | GI50 (DU-145 prostate) 2.22 µM | GI50 (EKVX NSCLC) 2.01 µM | GI50 (HCC-2998 colon) 1.44 µM | GI50 (HCT-116 colon) 1.4 µM | GI50 (HCT-15 colon) 1.29 µM | GI50 (HL-60(TB) leukemia) 1.15 µM | GI50 (HOP-62 NSCLC) 2.83 µM | GI50 (HOP-92 NSCLC) 1.29 µM | GI50 (HS 578T breast) 2.22 µM | GI50 (HT29 colon) 1.7 µM | GI50 (IGROV1 ovarian) 1.71 µM | GI50 (K-562 leukemia) 0.713 µM | GI50 (KM12 colon) 3.18 µM | GI50 (LOX IMVI melanoma) 1.45 µM | GI50 (M14 melanoma) 1.9 µM | GI50 (MCF7 breast) 1.2 µM | GI50 (MDA-MB-231 breast) 1.75 µM | GI50 (MDA-MB-435) 1.63 µM | GI50 (MOLT-4 leukemia) 0.792 µM | GI50 (NCI-H226 lung) 6.47 µM | GI50 (NCI-H460 lung) 1.72 µM | GI50 (NCI-H522 lung) 1.56 µM | GI50 (NCI/ADR-RES ovarian) 4.24 µM | GI50 (OVCAR-4 ovarian) 1.96 µM | GI50 (OVCAR-5 ovarian) 4.48 µM | GI50 (OVCAR-8 ovarian) 1.57 µM | GI50 (PC-3 prostate) 1.93 µM | GI50 (RXF 393 renal) 1.54 µM | GI50 (SF-268 CNS) 4.14 µM | GI50 (SF-295 CNS) 1.73 µM | GI50 (SF-539 CNS) 1.68 µM | GI50 (SK-MEL-2 melanoma) 1.45 µM | GI50 (SK-MEL-28 melanoma) 1.73 µM | GI50 (SK-MEL-5 melanoma) 1.48 µM | GI50 (SK-OV-3 ovarian) 14.8 µM | GI50 (SNB-19 CNS) 1.99 µM | GI50 (SNB-75 CNS) 1.59 µM | GI50 (SW-620 colon) 1.62 µM | GI50 (T-47D breast) 1.71 µM | GI50 (TK-10 renal) 10.6 µM | GI50 (U251 CNS) 1.47 µM | GI50 (UACC-257 melanoma) 1.91 µM | GI50 (UACC-62 melanoma) 2.03 µM | GI50 (UO-31 renal) 3.1 µM
2.86 µM: TGI (LOX IMVI melanoma)
2.92 µM: TGI (U251 CNS)
25.3 µM: TGI (TK-10 renal)
29.8 µM: TGI (NCI-H226 lung)
4.28 µM: TGI (UACC-62 melanoma)
3.16 µM: TGI (NCI-H522 lung)
3.04 µM: TGI (786-0 renal)
3.3 µM: TGI (SW-620 colon)
3.74 µM: TGI (UACC-257 melanoma)
3.92 µM: TGI (MDA-MB-231 breast) | TGI (MOLT-4 leukemia)
3.2 µM: TGI (K-562 leukemia)
3.97 µM: TGI (SNB-75 CNS)
2.69 µM: TGI (HCT-116 colon)
3.59 µM: TGI (COLO 205 colon)
2.78 µM: TGI (HCC-2998 colon)
2.83 µM: TGI (SK-MEL-2 melanoma)
29.3 µM: TGI (SK-OV-3 ovarian)
3.12 µM: TGI (HOP-92 NSCLC)
3.67 µM: TGI (SF-295 CNS)
5.81 µM: TGI (DU-145 prostate) | TGI (SNB-19 CNS)
4.39 µM: TGI (M14 melanoma)
3.18 µM: TGI (MDA-MB-435)
3.32 µM: TGI (NCI-H460 lung) | TGI (SF-539 CNS)
3.94 µM: TGI (HL-60(TB) leukemia)
3.68 µM: TGI (HT29 colon)
2.57 µM: TGI (MCF7 breast)
19.8 µM: TGI (A498 renal) | TGI (OVCAR-5 ovarian)
28.2 µM: TGI (CAKI-1 renal)
5.89 µM: TGI (BT-549 breast)
10.9 µM: TGI (HOP-62 NSCLC)
10.3 µM: TGI (KM12 colon)
6.51 µM: TGI (T-47D breast)
7.55 µM: TGI (PC-3 prostate)
2.97 µM: TGI (RXF 393 renal)
5.04 µM: TGI (OVCAR-4 ovarian)
3.27 µM: TGI (OVCAR-8 ovarian)
> 100 µM: TGI (A549 NSCLC) | TGI (ACHN renal) | TGI (NCI/ADR-RES ovarian)
3.11 µM: TGI (SK-MEL-28 melanoma)
5.01 µM: TGI (HS 578T breast)
